Measured values as given in patent US12435071B2, “Bryostatin compounds and methods of preparing the same” (priority 2016, dated 2025).
Read-outs that look alike come from different tables or passages of the source.

Legend:
[1] = molecular target: T1, PKC beta-I (Homo sapiens, UniProt P05771); experiment: PKC binding assay, competition with 3H-PDBu (glass-fiber filtration)
T1 construct: purchased Invitrogen
Procedure: (§1) This procedure entails a glass-fiber filtration method to determine bound radioligand. PKC-beta-I and PKC-delta were selected for preliminary evaluation. The former is a member of the conventional PKC subfamily while the latter is a member of the novel PKC sub-family (A. C. Newton. Protein Kinase C: Structure, Function, and Regulation. J. Biol. Chem. 270, 28495-28498 (1995)).
(§2) To a 50 mL polypropylene tube was added Tris-HCl (pH 7.4, 1 M, 1 mL), KCl (1 M, 2 mL), CaCl2 (0.1 M, 30 μL), and bovine serum albumin (40 mg, Sigma-Aldrich). This mixture was diluted to 20 mL with deionized H2O and mixed gently. The buffer was stored on ice until use.
(§3) For every two assays, 3.5 mg phosphatidylserine (Avanti Polar Lipids, porcine, 25 mg/mL CHCl3 solution) was concentrated by removing chloroform under a stream of nitrogen followed by reduced pressure. The solid P S was suspended as vesicles in freshly prepared PKC binding assay buffer (3.5 mL) by sonicating six times for 30 sec, with a 30 sec rest between sonications (Branson Sonifier 250, power=2, 50% duty cycle). The resulting milky cloudy mixture (1 mg/mL) was stored on ice until use.
(§4) Assay PKC was prepared by dissolving a 4 μg aliquot of the indicated recombinant human PKC isoform (Invitrogen) into 11.6 mL of PKC binding assay buffer (this amount is sufficient for two assays). The diluted PKC was stored on ice for immediate use.
(§5) The resulting 500 nM stock solution was further diluted with DMSO to 30 nM.
(§6) Compound dilutions were prepared by serially diluting from a chosen “high” concentration by factors of 3 or 4. For each analog compound, seven concentrations were used to define the inhibition curve (i.e. for exocyclic alkene 34, the analog concentrations used were 3000 nM, 750 nM, 188 nM, 46.9 nM, 11.7 nM, 2.93 nM, and 0.73 nM).
(§7) The resulting solution was vortexed to mix and stored on ice.
(§8) • Glass-fiber filters (Whatman GF/B) were prepared by soaking them in a solution of aqueous polyethyleneimine (10% by vol, 18 mL) in deionized water (600 mL) for >1 h. • 500 mL “rinsing buffer” of 20 mM Tris, pH 7.4 was cooled on ice for the duration of the incubation period and for the remainder of the assay.
(§9) Triplicate data points were obtained for each analog concentration. […]
(§10) The resulting filters had circular perforations for each data point, which were removed with forceps and placed in a scintillation vial. Scintillation vials were filled with Bio-Safe II scintillation fluid (5 mL) and measured for radioactivity using a Beckman LS 6000SC scintillation counter. […] The data were plotted—cpm vs. log(concentration)—using Prism® by GraphPad Software and an IC50 was determined using that program's built-in one-site competition least squares regression function.

[2] = molecular target: T2, PKC delta (Homo sapiens, UniProt Q05655); experiment: as above; conditions: recombinant human PKC isoform, parentheses = 95% confidence interval
T2 construct: purchased Invitrogen
Procedure: as §1, §2, §3, §4, §5, §6, §7, §8, §9, §10

[3] = recombinant human PKC isoform, competition with 3H-PDBu, parentheses = 95% confidence interval, read-out: PKC Ki (nM) beta-1

T1 sequence (P05771 whole entry): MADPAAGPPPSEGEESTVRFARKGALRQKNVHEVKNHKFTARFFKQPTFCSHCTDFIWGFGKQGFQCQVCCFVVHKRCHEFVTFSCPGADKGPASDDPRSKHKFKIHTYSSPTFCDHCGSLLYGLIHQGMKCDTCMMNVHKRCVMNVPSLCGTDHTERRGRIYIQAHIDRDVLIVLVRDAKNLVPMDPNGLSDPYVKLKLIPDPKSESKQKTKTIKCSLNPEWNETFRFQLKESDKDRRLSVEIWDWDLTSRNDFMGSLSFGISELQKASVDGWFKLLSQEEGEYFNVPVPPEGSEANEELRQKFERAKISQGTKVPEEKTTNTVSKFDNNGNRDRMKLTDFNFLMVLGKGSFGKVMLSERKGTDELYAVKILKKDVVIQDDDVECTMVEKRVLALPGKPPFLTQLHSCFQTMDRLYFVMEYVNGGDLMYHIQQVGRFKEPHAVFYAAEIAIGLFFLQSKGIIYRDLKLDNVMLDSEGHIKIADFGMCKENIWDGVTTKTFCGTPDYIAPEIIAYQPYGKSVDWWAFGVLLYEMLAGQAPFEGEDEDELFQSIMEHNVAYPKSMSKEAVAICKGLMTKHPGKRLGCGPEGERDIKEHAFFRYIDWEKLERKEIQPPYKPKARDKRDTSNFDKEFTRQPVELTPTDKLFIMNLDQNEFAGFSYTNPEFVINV
T2 sequence (Q05655 whole entry, canonical isoform): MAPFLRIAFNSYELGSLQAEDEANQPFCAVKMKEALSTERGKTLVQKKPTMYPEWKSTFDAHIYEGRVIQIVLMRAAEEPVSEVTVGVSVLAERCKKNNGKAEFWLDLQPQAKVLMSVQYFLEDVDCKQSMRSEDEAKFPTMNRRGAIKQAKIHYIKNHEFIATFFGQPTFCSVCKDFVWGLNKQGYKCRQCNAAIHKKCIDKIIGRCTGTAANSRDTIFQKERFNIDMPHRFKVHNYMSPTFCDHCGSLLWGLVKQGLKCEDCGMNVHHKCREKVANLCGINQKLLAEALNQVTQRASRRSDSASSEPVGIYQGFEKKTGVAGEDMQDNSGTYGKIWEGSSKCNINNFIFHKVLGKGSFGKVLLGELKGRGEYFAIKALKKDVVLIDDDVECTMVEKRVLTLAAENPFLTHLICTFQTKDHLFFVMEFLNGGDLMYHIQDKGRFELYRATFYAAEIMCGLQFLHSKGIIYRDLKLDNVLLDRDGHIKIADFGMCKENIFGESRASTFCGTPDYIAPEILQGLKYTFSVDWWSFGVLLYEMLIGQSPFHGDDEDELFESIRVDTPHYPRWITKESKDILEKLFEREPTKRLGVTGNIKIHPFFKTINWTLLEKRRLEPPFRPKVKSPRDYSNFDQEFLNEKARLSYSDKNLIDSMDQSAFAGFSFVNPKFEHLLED

CCC/C=C/C=C/C(=O)O[C@H]1/C(=C/C(=O)OC)C[C@H]2CC([C@@H](C)O)OC(=O)C[C@@H](O)C[C@@H]3C[C@H](OC(C)=O)C(C)(C)[C@](O)(C[C@@H]4C/C(=C\C(=O)OC)C[C@H](/C=C/C(C)(C)[C@]1(O)O2)O4)O3 (stereo partly shown) [(E)-enoate 35]
Ki [1]: 12 nM

C=C1C[C@H]2C[C@]3(O)O[C@H](C[C@H](O)CC(=O)OC([C@@H](C)O)C[C@@H]4C/C(=C\C(=O)OC)[C@H](OC(=O)C#CCCCCC)[C@@](O)(O4)C(C)(C)/C=C/[C@@H](C1)O2)C[C@H](OC(C)=O)C3(C)C (stereo partly shown) [alkene 34]
Ki [1, 3]: 3.9 nM
Ki [2]: 0.76 nM

CCC/C=C/C=C/C(=O)O[C@H]1/C(=C/C(=O)OC)C[C@H]2C[C@H]([C@@H](C)O)OC(=O)C[C@H](O)C[C@@H]3C[C@H](OC(C)=O)C(C)(C)[C@](O)(C[C@@H]4C/C(=C/C(=O)OC)C[C@H](/C=C/C(C)(C)[C@]1(O)O2)O4)O3 [bryostatin 1, reference compound]
Ki [1, 3]: 1.6 nM
